Data as given in patent publication US7265091B2, “Methods and compositions for treating male erectile dysfunction” (The Regents of the University of California, priority 2000, dated 2007).

Key:
[1] = system: dorsal nerve, intracavernosal smooth muscle and endothelium; conditions: ligated rats, 4 μg of VEGF
Description: The penis was dissected, thinly sliced (˜1 mm thick) and placed in Karnovsky's fixative (1% para-formaldehyde/3% glutaraldehyde/0.1 M sodium cacodylate buffer, pH 7.4) at room temperature for 30 minutes and then stored at 4° C. The fixed tissue was then rinsed in buffer, post-fixed in 2% aqueous OsO4, and stained en bloc with uranyl acetate before being dehydrated in ethanol, cleared in propyline oxide, and embedded in eponate 12 (Ted Pella Co., Redding, Calif.). Thick sections were cut and stained with toludine blue, examined under light microscope to select the area to be thin-sectioned. Thin sections were cut by Leica ultracut E microtome (Bannockburn, Ill.), stained with uranyl acetate and Reynold's Lead to enhance contrast and examined under Philips Tecnai 10 electron microscope (Eidhoven, Netherlands).

[2] = system: venogenic erectile dysfunction in castrated rats; assay: Pharmacologic cavernosometry, prevention trial in castrated rats (Experiment 2); format: in vivo, rat; conditions: castrated rats treated at castration, cavernosometry 9 weeks after castration
Text: For the prevention trial of VEGF in rats with venogenic erectile ED, adult males were castrated and immediately treated with hormone, intracavernosal VEGF. […] Control animals received an silastic implant containing saline (n=3), an intracavernous injection of normal saline (n=3) or an […] transfection vector expressing lacZ reporter gene without the VEGF gene (AAV-LacZ, n=11).
A 1.5 cm oblique incision was made in the lower abdominal skin extending from the midline just above the penile hilum to below the level of the glans about 1 cm lateral to the midline. The skin was sharply dissected from the anterior surface of the penis and then the penis was retracted anteriorly using a towel clamp placed around it atraumatically with the foreskin left intact. Using blunt dissection the penile base and crura were exposed. The ischiocavernosus muscles were sharply dissected off the anterior surface of the crus until the white of the tunica albuginea of the corpora cavernosa was identified. The crus was then gently cannulated using a 23 gage butterfly needle, and saline flush with a visual erectile response was used to confirm that the needle tip was truly intracavernosal. The intracavernosal injections were then administered with either VEGF protein (Calbiochem, La Jolla, Calif. #676472) at the dosage 4 ug/injection (in 0.1 cc PBS with 0.1% BSA), AAV-VEGF (10^10 viral particles in 0.1 cc NS), AAV-LacZ (10^10 viral particles in 0.1 cc NS), or 0.1 ml NS alone. The AAV-VEGF and AAV-LacZ constructs were a generous gift from Dr. Yuet W. Kan (Howard Hughes Medical Research Institute, San Francisco, Calif.).^19,20 Following injection, the needle was left in place for 5 minutes and then removed to allow the medication to diffuse throughout the cavernosal space. Immediately thereafter, pinpoint electrocautery was applied to the needle hole for hemostasis and then the wound was closed and the animal recovered as above.
Following castration, testosterone- or saline-filled silastic implants were placed in the subcutaneous tissue of the anterior abdominal wall, as previously described.^17 Implants were prepared using sterile silastic tubing (Dow Coming, Midland, Mich. #602-265, inner diameter 0.062″) that was filled with testosterone propionate powder (Sigma Chemical, St. Louis, Mo.) with the aid of wall suction.
To perform pharmacologic cavemosometry, both the right and left crura were separately cannulated using 23 gauge butterfly needles as described above. One cannula was flushed with sterile heparinized saline (100 U heparin/ml NS) and attached to a pressure detector for continuous intracorporal pressure (ICP) monitoring as previously described.^11 The contralateral cannula was attached to an infusion pump (Harvard Pump, Southwick, Mass. #55-2222), filled with sterile dilute heparinized saline (20 U heparin/ml NS). The baseline ICP was recorded (flaccid ICP) and then a dose of papavarine (1 mg in 0.1 cc NS) was administered through the infusion cannula. Five minutes was allowed for the papavarine to diffuse throughout the corpora and then the infusion cannula was flushed with heparinized saline and the pressure monitor cannula vented to normalize ICP after flushing. After 5 minutes more, the ICP was again recorded (ICP after papavarine) and the infusion started. An infusion rate of 0.05 ml/min was started and increased (by 0.05 ml/min every 10 seconds) until the ICP started to rise. Subsequent increases in inflow rate were made only after the ICP reached a plateau pressure. By slowly adjusting the inflow rate, an intracorporal pressure of 100 cm H2O (erectile pressure) was reached and the infusion rate required to maintain this pressure recorded (the maintenance rate). After this pressure was steady for 20 seconds, the infusion was terminated and the change in ICP over the subsequent 60 seconds was recorded (the drop rate).

[3] = system: penile smooth muscle (alpha actin); assay: Alpha-smooth muscle actin immunohistochemistry of rat penis with image analysis; format: in vivo; conditions: castrated rats
Description: Frozen sections were cut at 10 microns, adhered to charged slides, air dried for 15 minutes then rehydrated with 0.05M PBS for 5 minutes. […] The serum solution was drained and then sections were incubated for 60 minutes with mouse monoclonal anti-alpha-smooth muscle actin (Sigma, St. Louis, Mo.) at a dilution of 1:4000 in PBS. […] Immunochemistry was performed in penile tissues from 4 rats randomly chosen from each subgroup.
Cross-sectional micrographs of the rat penis at the proximal shaft were examined after immunohistochemistry for alpha actin. Alpha actin, a marker for penile smooth muscle, stains brown and can be seen surrounding the sinusoidal spaces. […] Computerized image analysis with Adobe Photoshop was used to quantify the area of immunostaining by counting the number of digitized pixels corresponding to the area of brown staining, thereby providing some numerical comparison of the quantity of smooth muscle in each specimen.

[4] = system: dorsal nerve, intracavernous smooth muscle cells and endothelial cells; assay: Transmission electron microscopy of penile tissue (Example 2); format: in vivo, rat
Text: Thick sections were cut and stained with toluidine blue to select specific areas for thin sectioning. Thin sections were cut, stained with both uranyl acetate and Reynold's Lead, and examined under the Phillips Tecnai 10 transmission electron microscope. Penile tissues from 4 randomly chosen rats in each subgroups were subjected to electron microscopic examinations.

[5] = system: cavernous nerve injury in rats; assay: Maximal intracavernous pressure after bilateral cavernous nerve freezing (Example 9, VENT); format: in vivo, rat; conditions: 3 months after bilateral cavernous nerve freezing, intracavernous injection
Description: (§1) Three months old Sprague-Dawley rats (N=30) were used: 6 underwent a sham operation; 24 underwent bilateral cavernous nerve freezing and then randomly divided into four groups of 6 each. The four groups of rats received intracavernous injection of one of the following: 1) phosphate buffered saline (PBS), 2) VEGF protein (4 μg), 3) adeno-associated virus (AAV)-BDNF, and 4). VEGF+AAV-BDNF. Erectile function was assessed by cavernous nerve electrostimulation 3 months later and samples of penile tissue were obtained for electron microscopy and immunohistochemical studies.

[6] = system: blood vessels and nerve fibers in the penis; assay: Penile tissue histology, nNOS staining and electron microscopy (Example 9); format: in vivo, rat; conditions: 3 months after bilateral cavernous nerve freezing
Description: as §1

[7] = system: outgrowing blood vessels in artery-muscle co-culture; assay: Artery-muscle co-culture; format: cell-based
Text: We extended our above angiogenesis model to include muscles in a co-culture system. The source of muscle was corpus cavernosum, urethra sphincter, or bladder. […] In addition, the combination of VEGF and PDGF encouraged more extensive contacts between the outgrowing vessels with the muscle. More studies with either single or a combination of other growth factors and the molecular mechanism of vessel growth are currently underway. Once the best growth factor or combinations are identified, we will perform in vivo studies in rats with severe vasculogenic ED to see if the in vitro assay helps identify the best angiogenins.

[8] = system: VSMC (aorta SMC); conditions: VSMC from 16-weeks-old rats
Description: Each primary culture of CSMC was prepared from the corpora cavernosa of 2-3 rats by the following procedure. The penis was cleared of the urethra, blood vessels, fat and connective tissue. The remaining smooth muscle tissue was washed 3 times in sterile PBS (phosphate-buffered saline) and cut into 2-3 mm^3 segments. The segments were placed evenly onto a 100-mm cell culture dish (Falcon-Becton Dickinson Labware, Franklin Lakes, N.J.) inside a cell culture hood. Approximately 10 min later, 10 ml of Dulbecco's Modified Eagle Medium (DMEM) containing penicillin (100 units/ml), streptomycin (100 μg/ml), and 10% FBS was carefully pipetted into the dish. The dish was then kept undisturbed in a humidified 37° C. incubator with 5% CO2. Five days later, tissue segments that have detached from the dish were removed, and the medium was replaced with fresh medium. Another 5 days later, all tissue segments were removed and the medium was again replaced with fresh medium. When small islands of cells were noticeable, they were trypsinized and transferred to a fresh culture dish. […]
Cell proliferation assays were performed with the CellTiter-96 kit from Promega Inc. (Madison, Wis.). […] After 4 hr of further incubation at 37° C. in the humidified, 5% CO2 incubator, color development, which reflects cell numbers, was recorded with a plate reader (Molecular Devices Corp., Sunnyvale, Calif.) at 490-nm absorbance. […]

[9] = system: cavernous smooth muscle cells (CSMC); conditions: 4 hr
Description: Primary aorta SMC cultures were prepared similarly with aortas isolated from 16-week-old male rats.
Cell migration assays were performed in 6.5-mm Transwell chambers of Corning Costar Corporation (Cambridge, Mass.). The Transwell inserts (upper chambers) were bathed in a solution containing 13.4 μg/ml fibronectin in PBS at 37° C. for 1 hr and allowed to air-dry. The dried upper chambers were then placed in the lower chambers, each of which contained 700 μl of serum-free DMEM supplemented with 0.1% BSA and 0 to 500 ng/ml of VEGF. SMC that had been grown to 70% confluence were further conditioned in serum-free DMEM (containing 0.1% BSA) for 2 hr and then trypsinized. The trypsinized cells were washed in PBS and resuspended at a concentration of 80,000 cells per ml in serum-free DMEM (containing 0.1% BSA). One hundred μl of the cell suspension was then added to each upper chamber. After 4 hr of incubation at 37° C., all liquid in the upper and lower chambers was removed by aspiration. The membranes in the upper chambers were subsequently fixed in 1% buffered formalin for 5 min and stained with 2% crystal violet. Non-migratory cells on the upper side of the membranes were scraped off with cotton swabs. Well locations were marked on the membranes and total cells per well were counted visually in a masked fashion. Well locations were then correlated with the concentrations of VEGF in the wells. […]

[10] = system: Penile dorsal arteries; conditions: serum-free medium, 3 days
Description: Penile dorsal arteries were isolated from rats and cut into 1-mm segments under a 10× microscope. Each segment was attached to a Matrigel-coated coverslip, which was then put in a 60-mm culture dish. Serum-free medium with or without VEGF was added and the arterial culture was incubated for 3 days.

[11] = castrated rats treated with VEGF or AAV-VEGF (pooled)

## VEGF
[1]; 2 and 6-week groups
  appearance of endothelium of sinusoids and capillaries: endothelial cell hypertrophy and hyperplasia
  appearance of intracavernosal smooth muscle cells: most of the smooth muscle cells appeared normal
[1]; week 6
  mean diameter of the myelinated axons, dorsal nerve: 6.19±2.38 μm
  mean diameter of the nonmyelinated axons, dorsal nerve: 0.82±0.45 μm
[2]
  Drop Rate in 1 min.: 9.0(+/−20) cm H2O
  Flaccid ICP: 27.8 cm H2O
  ICP After Papavarine: 85.0(+/−28) cm H2O
  Maintenance Rate: 0.04(+/−0.09) ml/min
[3]
  quantity of penile smooth muscle, qualitative: returns to normal morphology
[3]; proximal penile shaft
  pixel count of alpha actin immunostaining (quantity of smooth muscle): 52990
[4]; castrated rats
  endothelial cells lining capillaries and sinusoids: endothelial hypertrophy and hyperplasia
[4]; [11]
  mean diameter of non-myelinated axons, dorsal nerve: 0.96±0.33 μm
  mean diameter of the myelinated nerve, dorsal nerve: 2.36±0.92 μm
  mean thickness of myelin sheath, dorsal nerve: 0.93±0.44 μm
[4]; castrated rats, compared to castrated+Lac Z rats
  intracavernous smooth muscle morphology: arranged in clusters with minimal intercellular spaces
[5]
  maximal intracavernous pressure (MICP), mean±SEM: 37.33±3.29 cm H2O
[6]
  nNOS positive nerve fibers in the dorsal nerves compared to PBS group: increased number
[7]
  cell growth in artery-muscle co-culture: encourage the growth of endothelial cells
[8]
  effect on growth of VSMC: did not stimulate growth
[9]; CSMC from 1-week-old rats
  VEGF concentration of peak CSMC migration: 1 ng/mL
[9]; CSMC from young and old rats except 1-week-old
  optimal dosage of VEGF for CSMC migration: 10 ng/mL
[10]
  length of budding new blood vessels vs untreated culture: significantly longer
